Measured values: US10905671B2, “Method of using omega 3 fatty acids to treat diseases which involve damage to the nervous system” (priority 2013, dated 2021)

Tests used:
[1] = tested on: moderate thyroid eye disease; assay: Patients with moderate thyroid eye disease (Example 5); assay type: in vivo, human; conditions: 3 patients; 10 mg
Description: The invention was used in 3 patients with moderate thyroid eye disease. The patients were controlled with 10 mg of prednisolone or with 7.5 g to 10 g of EPA and DHA and having a AA/EPA ratio between 1 to 1.5.

scleritis = assay: Patients with scleritis (Example 3); assay type: in vivo, human; conditions: two patients; 10 mg

C[C@]12C=CC(=O)C=C1CC[C@@H]1[C@@H]2[C@@H](O)C[C@@]2(C)[C@H]1CC[C@]2(O)C(=O)CO [prednisolone]
control of thyroid eye disease [1]: controlled | control of scleritis (scleritis): controlled | side effects (scleritis): had to stop due to the side effects
